According to PMC10600239, “Selective MCL-1 inhibitor ABBV-467 is efficacious in tumor models but is associated with cardiac troponin increases in patients” (Communications Medicine, 2023):
Values joined by “and” are separate entries in the source; they are usually repeats but may differ in a detail not shown here. Identical values can stand only once.

System: AMO-1 xenografts
Assay: AMO-1 xenograft efficacy (tumor volume, body weight)
Format: in vivo, mouse
Design: key to Anti-tumor Activity vs. AMO-1 (DSMZ), Median / Anti-tumor Activity vs. AMO-1 (DSMZ), individual animal / Anti-tumor Activity vs. AMO-1 (DSMZ), Mean: tumor volume in mm^3 (length × width^2/2)
Procedure: All animal studies were conducted in accordance with the guidelines approved by the Institutional Animal Care and Use Committees of AbbVie. The research protocol was approved by In Vivo Pharmacology at AbbVie prior to study initiation but was not publicly registered or disclosed. Female C.B-17 SCID-beige mice (AMO-1, OPM-2, NCI-H929, and OCI-AML2 xenografts) and female NSG mice (MV4-11-Red.Fluc systemic) were purchased from Charles River Laboratories (Wilmington, MA). Animals were housed in a light cycle-controlled room with HEPA filtration at 22 °C. Animals had nesting and climbing cage topper as the primary environmental enrichment. Animals were inoculated subcutaneously in the right flank with 5 × 10^6 (AMO-1, OPM-2, NCI-H929, and OCI-AML2) or intravenous (IV) with 5 × 10^6 (MV4-11-Red.Fluc). The inoculation volume (0.2 mL) comprised a 50:50 mixture of cells in growth media and Matrigel (BD Biosciences) for subcutaneous injections and 100% phosphate-buffered saline for IV administration. All cell lines used in this publication were authenticated using IDEXX for STR profiling as well as their IMPACT and human IMPACT panels for pathogen screening. Electronic calipers were used to measure the length and width of each tumor 2 to 3 times per week. Tumor volume was estimated by applying the following equation: volume = length × width^2/2. All groups remained blinded during measurements and dosing; only veterinary staff were aware of group identity. When tumors reached approximately 200 mm^3, mice were randomized by match and distributed into treatment and control groups. All xenograft trials were conducted using 5 to 10 mice per group, and all mice were ear tagged and monitored individually throughout the studies. […] Tumor burden in the systemic MV4-11-Red.Fluc experiment was measured using an IVIS® spectrum from PerkinElmer by taking the total photon flux of the entire dorsal side of an individual mouse. […] A background control mouse that was tumor naive but received D-Luciferin was placed in the upper left corner of each image. The total flux from this animal was subtracted from the total flux of each animal present in the image.
For in vivo studies, maximal tumor growth inhibition (TGI) was calculated as the greatest treatment response using the following equation: Maximal TGI = (1 − mean tumor volume of the treated group/mean tumor volume of the vehicle control group) × 100. The tumor growth delay (TGD) percentage was determined as the percentage increase of the median time period for the treatment group to reach an arbitrary tumor volume of 1000 mm^3 relative to the vehicle control group. […] A power analysis was conducted using historical data to determine the number of animals required to yield significance of 0.05 at a 30% difference. […] Data from experiments in vivo were analyzed using the student’s t-test for TGI values and the Mann–Whitney U test for TGD using Excel and GraphPad Prism. Fisher’s exact test was used to probe significance of differences in response frequency.

[1] = 3.13 mg/kg IV QDx1, Day 13 (day before dosing begins)
[2] = 3.13 mg/kg QDx1 IV, Day 26, n=8

Cc1c(Cl)c2c(Cl)c(C)c1-c1c(-c3ccc(F)cc3)sc3ncnc(c13)O[C@@H](C(=O)O)Cc1cc(ccc1OCc1ccnc(-c3ccc(OC[C@H]4COCCO4)cc3)n1)OC[C@@H](CN1CCN(C)CC1)O2 [Compound A-1747745.0]
Starting Body Wt. (3.13 mg/kg IV QDx1, AMO-1 xenograft, SCID-beige mice, in g (unit assumed)): 21.625
% Mortality (3.13 mg/kg IV QDx1, clinical observation): 100.00%
Anti-tumor Activity vs. AMO-1 (DSMZ), Mean (3.13 mg/kg IV QDx1, day 13): 216.27
Anti-tumor Activity vs. AMO-1 (DSMZ), Median (3.13 mg/kg IV QDx1, day 13): 216.30
Anti-tumor Activity vs. AMO-1 (DSMZ), individual animal (3.13 mg/kg IV QDx1, day 13): 219 and 210 and 215 and 217 and 224 and 221 and 209 and 214
Group Mean, Body Weight (3.13 mg/kg IV QDx1, day 14): 21.63 g
Anti-tumor Activity vs. AMO-1 (DSMZ), Mean (3.13 mg/kg IV QDx1, day 16): 205.11
Anti-tumor Activity vs. AMO-1 (DSMZ), Median (3.13 mg/kg IV QDx1, day 16): 207.59
Anti-tumor Activity vs. AMO-1 (DSMZ), individual animal (3.13 mg/kg IV QDx1, day 16): 195 and 171 and 227 and 217 and 219 and 212 and 203 and 196
Anti-tumor Activity vs. AMO-1 (DSMZ), Mean (3.13 mg/kg IV QDx1, day 19): 192.25
Anti-tumor Activity vs. AMO-1 (DSMZ), Median (3.13 mg/kg IV QDx1, day 19): 202.67
Anti-tumor Activity vs. AMO-1 (DSMZ), individual animal (3.13 mg/kg IV QDx1, day 19): 210 and 196 and 181 and 173 and 128 and 213 and 209 and 227
Anti-tumor Activity vs. AMO-1 (DSMZ), Mean (3.13 mg/kg IV QDx1, day 21): 316.72
Anti-tumor Activity vs. AMO-1 (DSMZ), Median (3.13 mg/kg IV QDx1, day 21): 336.29
Anti-tumor Activity vs. AMO-1 (DSMZ), individual animal (3.13 mg/kg IV QDx1, day 21): 248 and 370 and 418 and 238 and 111 and 349 and 477 and 324
Anti-tumor Activity vs. AMO-1 (DSMZ), Mean (3.13 mg/kg IV QDx1, day 23): 463.98
Anti-tumor Activity vs. AMO-1 (DSMZ), Median (3.13 mg/kg IV QDx1, day 23): 467.27
Anti-tumor Activity vs. AMO-1 (DSMZ), individual animal (3.13 mg/kg IV QDx1, day 23): 595 and 419 and 553 and 359 and 205 and 462 and 647 and 473
Group Mean, Body Weight (3.13 mg/kg IV QDx1, day 23): 22.13 g
Anti-tumor Activity vs. AMO-1 (DSMZ), Mean (3.13 mg/kg IV QDx1, day 26): 740.25
Anti-tumor Activity vs. AMO-1 (DSMZ), Median (3.13 mg/kg IV QDx1, day 26): 757.36
Anti-tumor Activity vs. AMO-1 (DSMZ), individual animal (3.13 mg/kg IV QDx1, day 26): 859 and 654 and 702 and 664 and 464 and 884 and 882 and 812
Anti-tumor Activity vs. AMO-1 (DSMZ), Mean (3.13 mg/kg IV QDx1, day 28): 1102.63
Anti-tumor Activity vs. AMO-1 (DSMZ), Median (3.13 mg/kg IV QDx1, day 28): 1024.93
Anti-tumor Activity vs. AMO-1 (DSMZ), individual animal (3.13 mg/kg IV QDx1, day 28): 1383 and 753 and 968 and 881 and 872 and 1157 and 1725 and 1082
Group Mean, Body Weight (3.13 mg/kg IV QDx1, day 28): 22.38 g
Anti-tumor Activity vs. AMO-1 (DSMZ), Mean (3.13 mg/kg IV QDx1, day 30): 1440.23
Anti-tumor Activity vs. AMO-1 (DSMZ), Median (3.13 mg/kg IV QDx1, day 30): 1430.49
Anti-tumor Activity vs. AMO-1 (DSMZ), individual animal (3.13 mg/kg IV QDx1, day 30): 1812 and 984 and 1324 and 1150 and 1149 and 1537 and 1916 and 1649
Anti-tumor Activity vs. AMO-1 (DSMZ), Mean (3.13 mg/kg IV QDx1, day 34): 2233.47
Anti-tumor Activity vs. AMO-1 (DSMZ), Median (3.13 mg/kg IV QDx1, day 34): 2203.67
Anti-tumor Activity vs. AMO-1 (DSMZ), individual animal (3.13 mg/kg IV QDx1, day 34): 2874 and 1660 and 1699 and 1719 and 1802 and 2605 and 2742 and 2768
Xenograft AMO-1 (DSMZ) tumor volume Day 13, Mean [1]: 216.27 mm³
Xenograft AMO-1 (DSMZ) tumor volume Day 13, Median [1]: 216.30 mm³
% T/C (mean) (3.13 mg/kg IV QDx1, Day 13 (day before dosing begins), mean(T)/mean(C)): 100.07%
% T/C (median) (3.13 mg/kg IV QDx1, Day 13 (day before dosing begins), median(T)/median(C)): 100.06%
Xenograft AMO-1 (DSMZ) (mm³) Day 13, individual animals (3.13 mg/kg IV QDx1, SCID-beige female mice, Day 13 (randomization, day before dosing begins)): 219 mm³ and 210 mm³ and 215 mm³ and 217 mm³ and 224 mm³ and 221 mm³ and 209 mm³ and 214 mm³
Xenograft AMO-1 (DSMZ) tumor volume Day 26, Mean [2]: 740.25 mm³
Xenograft AMO-1 (DSMZ) tumor volume Day 26, Median [2]: 757.36 mm³
